# In PubChem BioAssay (NCI):
#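 Tested at 5 concentrations; 48 h exposure; 96-well plates; endpoints linearly interpolated, else capped at highest concentration. Here, GI50 denotes the concentration required for 50% inhibition of growth. TGI denotes the concentration required for complete inhibition of growth.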
# Key:
# Assay in all cases: NCI tumour cell line growth inhibition, 48 h
# HCT-15 colon = system: HCT-15 colon
# SK-MEL-28 melanoma = system: SK-MEL-28 melanoma
# UO-31 renal = system: UO-31 renal
# P388 leukemia = system: P388 leukemia
# DU-145 prostate = system: DU-145 prostate
# NCI/ADR-RES ovarian = system: NCI/ADR-RES ovarian
# SR leukemia = system: SR leukemia
# OVCAR-8 ovarian = system: OVCAR-8 ovarian
# UACC-257 melanoma = system: UACC-257 melanoma
# NCI-H23 lung = system: NCI-H23 lung
# MDA-MB-231 breast = system: MDA-MB-231 breast
# OVCAR-4 ovarian = system: OVCAR-4 ovarian
# EKVX NSCLC = system: EKVX NSCLC
# SF-268 CNS = system: SF-268 CNS
# RPMI-8226 leukemia = system: RPMI-8226 leukemia
# NCI-H460 lung = system: NCI-H460 lung
# MOLT-4 leukemia = system: MOLT-4 leukemia
# SK-OV-3 ovarian = system: SK-OV-3 ovarian
# CAKI-1 renal = system: CAKI-1 renal
# SK-MEL-5 melanoma = system: SK-MEL-5 melanoma
# HOP-18 NSCLC = system: HOP-18 NSCLC
# OVCAR-3 ovarian = system: OVCAR-3 ovarian
# HOP-62 NSCLC = system: HOP-62 NSCLC
# SK-MEL-2 melanoma = system: SK-MEL-2 melanoma
# MCF7 breast = system: MCF7 breast
# RXF 393 renal = system: RXF 393 renal
# ACHN renal = system: ACHN renal
# COLO 205 colon = system: COLO 205 colon
# UACC-62 melanoma = system: UACC-62 melanoma
# M14 melanoma = system: M14 melanoma
# SN12C renal = system: SN12C renal
# SNB-19 CNS = system: SNB-19 CNS
# 786-0 renal = system: 786-0 renal
# KM12 colon = system: KM12 colon
# KM20L2 colon = system: KM20L2 colon
# HOP-92 NSCLC = system: HOP-92 NSCLC
# SN12K1 renal = system: SN12K1 renal
# HL-60(TB) leukemia = system: HL-60(TB) leukemia
# MDA-MB-435 = system: MDA-MB-435
# P388/ADR leukemia = system: P388/ADR leukemia
# LOX IMVI melanoma = system: LOX IMVI melanoma
# HT29 colon = system: HT29 colon
# A498 renal = system: A498 renal
# DLD-1 colon = system: DLD-1 colon
# HCC-2998 colon = system: HCC-2998 colon
# HCT-116 colon = system: HCT-116 colon
# DMS 273 small cell lung = system: DMS 273 small cell lung
# U251 CNS = system: U251 CNS
# DMS 114 small cell lung = system: DMS 114 small cell lung
# NCI-H226 lung = system: NCI-H226 lung
# SNB-78 CNS = system: SNB-78 CNS
# NCI-H522 lung = system: NCI-H522 lung
# CCRF-CEM leukemia = system: CCRF-CEM leukemia
# SF-539 CNS = system: SF-539 CNS
# HS 578T breast = system: HS 578T breast
# OVCAR-5 ovarian = system: OVCAR-5 ovarian
# SW-620 colon = system: SW-620 colon
# XF 498 CNS = system: XF 498 CNS
# BT-549 breast = system: BT-549 breast
# MALME-3M melanoma = system: MALME-3M melanoma
# IGROV1 ovarian = system: IGROV1 ovarian
# A549 NSCLC = system: A549 NSCLC
# PC-3 prostate = system: PC-3 prostate
# SNB-75 CNS = system: SNB-75 CNS
# SF-295 CNS = system: SF-295 CNS
# K-562 leukemia = system: K-562 leukemia
# TK-10 renal = system: TK-10 renal
# M19-MEL melanoma = system: M19-MEL melanoma
compound,measurement,setting,value
COc1ccc2[nH]c3c(C)c4ccncc4c(C)c3c2c1,TGI,HCT-15 colon,2.3 µM
same,TGI,SK-MEL-28 melanoma,9.06 µM
same,TGI,UO-31 renal,4.25 µM
same,TGI,P388 leukemia,1.87 µM
same,GI50,DU-145 prostate,0.13 µM
same,TGI,DU-145 prostate,1.59 µM
same,TGI,NCI/ADR-RES ovarian,1.96 µM
same,TGI,SR leukemia,6.83 µM
same,TGI,OVCAR-8 ovarian,1.92 µM
same,TGI,UACC-257 melanoma,8.12 µM
same,TGI,NCI-H23 lung,2.1 µM
same,GI50,MDA-MB-231 breast,0.307 µM
same,TGI,MDA-MB-231 breast,1.87 µM
same,TGI,OVCAR-4 ovarian,1.58 µM
same,TGI,EKVX NSCLC,2.71 µM
same,TGI,SF-268 CNS,4.65 µM
same,TGI,RPMI-8226 leukemia,2.73 µM
same,TGI,NCI-H460 lung,0.892 µM
same,TGI,MOLT-4 leukemia,0.802 µM
same,TGI,SK-OV-3 ovarian,5.16 µM
same,TGI,CAKI-1 renal,5.49 µM
same,TGI,SK-MEL-5 melanoma,2.86 µM
same,TGI,HOP-18 NSCLC,6.44 µM
same,TGI,OVCAR-3 ovarian,2.46 µM
same,TGI,HOP-62 NSCLC,3.09 µM
same,TGI,SK-MEL-2 melanoma,5.36 µM
same,TGI,MCF7 breast,2.2 µM
same,TGI,RXF 393 renal,0.477 µM
same,GI50,ACHN renal,0.0194 µM
same,TGI,ACHN renal,1.51 µM
same,TGI,COLO 205 colon,1.6 µM
same,TGI,UACC-62 melanoma,2.54 µM
same,GI50,M14 melanoma,0.29 µM
same,TGI,M14 melanoma,1.63 µM
same,TGI,SN12C renal,2.54 µM
same,TGI,SNB-19 CNS,7.83 µM
same,GI50,786-0 renal,0.0436 µM
same,TGI,786-0 renal,1.49 µM
same,TGI,KM12 colon,1.68 µM
same,TGI,KM20L2 colon,7.32 µM
same,TGI,HOP-92 NSCLC,0.935 µM
same,TGI,SN12K1 renal,1.31 µM
same,TGI,HL-60(TB) leukemia,2.42 µM
same,GI50,MDA-MB-435,0.208 µM
same,TGI,MDA-MB-435,1.67 µM
same,TGI,P388/ADR leukemia,3.47 µM
same,TGI,LOX IMVI melanoma,4.29 µM
same,TGI,HT29 colon,2.4 µM
same,TGI,A498 renal,2.1 µM
same,TGI,DLD-1 colon,1.33 µM
same,TGI,HCC-2998 colon,5.57 µM
same,TGI,HCT-116 colon,1.5 µM
same,TGI,DMS 273 small cell lung,1.95 µM
same,TGI,U251 CNS,4.19 µM
same,TGI,DMS 114 small cell lung,4.49 µM
same,TGI,NCI-H226 lung,3.89 µM
same,TGI,SNB-78 CNS,11.7 µM
same,TGI,NCI-H522 lung,2.47 µM
same,TGI,CCRF-CEM leukemia,4.7 µM
same,TGI,SF-539 CNS,1.45 µM
same,GI50,HS 578T breast,1.13 µM
same,TGI,HS 578T breast,3.55 µM
same,TGI,OVCAR-5 ovarian,4.07 µM
same,TGI,SW-620 colon,1.56 µM
same,TGI,XF 498 CNS,6.66 µM
same,GI50,BT-549 breast,0.757 µM
same,TGI,BT-549 breast,2.11 µM
same,TGI,MALME-3M melanoma,5.73 µM
same,TGI,IGROV1 ovarian,2.41 µM
same,TGI,A549 NSCLC,2.15 µM
same,GI50,PC-3 prostate,0.0843 µM
same,TGI,PC-3 prostate,2.02 µM
same,TGI,SNB-75 CNS,2.77 µM
same,TGI,SF-295 CNS,1.26 µM
same,TGI,K-562 leukemia,1.43 µM
same,GI50,TK-10 renal,1.12 µM
same,TGI,TK-10 renal,4.37 µM
Cc1cc(C(=O)NCCN(C)C)c2nc3ccccc3cc2c1,TGI,HCT-15 colon,11.4 µM
same,TGI,SK-MEL-28 melanoma,10.7 µM
same,TGI,UO-31 renal,3.93 µM
same,TGI,P388 leukemia,1.68 µM
same,TGI,NCI/ADR-RES ovarian,4.62 µM
same,TGI,OVCAR-8 ovarian,4.28 µM
same,TGI,UACC-257 melanoma,5.02 µM
same,TGI,NCI-H23 lung,5.93 µM
same,TGI,OVCAR-4 ovarian,10.6 µM
same,TGI,EKVX NSCLC,0.971 µM
same,TGI,SF-268 CNS,10.2 µM
same,TGI,RPMI-8226 leukemia,5.71 µM
same,TGI,M19-MEL melanoma,4.42 µM
same,TGI,NCI-H460 lung,2.36 µM
same,TGI,MOLT-4 leukemia,> 21.8 µM
same,TGI,SK-OV-3 ovarian,8.97 µM
same,TGI,CAKI-1 renal,1.29 µM
same,TGI,SK-MEL-5 melanoma,3.6 µM
same,TGI,HOP-18 NSCLC,7.16 µM
same,TGI,OVCAR-3 ovarian,8.98 µM
same,TGI,HOP-62 NSCLC,6.38 µM
same,TGI,SK-MEL-2 melanoma,7.26 µM
same,TGI,MCF7 breast,8 µM
same,TGI,RXF 393 renal,4.32 µM
same,TGI,COLO 205 colon,3.54 µM
same,TGI,UACC-62 melanoma,5.05 µM
same,TGI,SN12C renal,7.26 µM
same,TGI,SNB-19 CNS,6.89 µM
same,TGI,KM12 colon,14.1 µM
same,TGI,KM20L2 colon,4.31 µM
same,TGI,HOP-92 NSCLC,5.27 µM
same,TGI,SN12K1 renal,2.6 µM
same,TGI,HL-60(TB) leukemia,3.95 µM
same,TGI,P388/ADR leukemia,2.18 µM
same,TGI,LOX IMVI melanoma,3.5 µM
same,TGI,HT29 colon,5.7 µM
same,TGI,A498 renal,6.37 µM
same,TGI,DLD-1 colon,10.9 µM
same,TGI,HCC-2998 colon,17.7 µM
same,TGI,HCT-116 colon,10.1 µM
same,TGI,DMS 273 small cell lung,10.8 µM
same,TGI,U251 CNS,10.7 µM
same,TGI,DMS 114 small cell lung,4.12 µM
same,TGI,NCI-H226 lung,3.33 µM
same,TGI,SNB-78 CNS,14.5 µM
same,TGI,CCRF-CEM leukemia,9.57 µM
same,TGI,SF-539 CNS,12.7 µM
same,TGI,OVCAR-5 ovarian,8.56 µM
same,TGI,SW-620 colon,8.88 µM
same,TGI,XF 498 CNS,3.69 µM
same,TGI,MALME-3M melanoma,4.28 µM
same,TGI,IGROV1 ovarian,12.6 µM
same,TGI,A549 NSCLC,6.81 µM
same,TGI,SNB-75 CNS,11.8 µM
same,TGI,SF-295 CNS,3.91 µM
same,TGI,K-562 leukemia,> 31.3 µM
